Experimental data taken from US20160263094A1, “Pantoprazole Sodium Composition Lyophilized Powder for Injection” (priority 2013, published 2016).

Tested on: gastric ulcer
Assay: Glacial acetic acid-induced gastric ulcer in SD rats
Assay type: in vivo
Conditions: 1.3 mg/kg, control group 2 continuous administration 15 d, treatment groups 10 d, three times a day
Experimental: 50 SD rats are used, made to starve for 24 h before testing. The abdominal cavity is opened under ether anesthesia, a glass tube with the inner diameter of 5 mm and the length of 30 mm is vertically placed on the surface of serosa of the gastric body and 0.2 ml of glacial acetic acid is added into the tube cavity. The glacial acetic acid is dipped out with a cotton swab after 5 min, and the surgical incision is sutured. Normal diet is permitted after the surgery, and animals are randomly divided into 5 groups on the next day: a control group 1 (distilled water), a control group 2 (pantoprazole sodium for injection), with continuous administration for 15 d, a treatment group 1 (embodiment 1), a treatment group 2 (embodiment 2) and a treatment group 3 (embodiment 3); and continuous administration is performed for 10 d, three times a day. The stomach is taken out by anatomy, fixed with formaldehyde, cut open along the greater curvature of the stomach and flat spread on a glass plate, and the transverse diameter d1 and the vertical diameter d2 of an ulcer are measured. The area of the ulcer S (mm2) is calculated according to a formula S=π×(d1/2)×(d2/2) to serve as an ulcer index, and ulcer healing rate and ulcer inhibition rate are calculated.

`COc1ccnc(C[S+]([O-])c2nc3cc(OC(F)F)ccc3[n-]2)c1OC.[Na+]` (stereo not shown) [Control group 2, 5-difluoromethoxy-2-[(3,4-dimethoxy-2-pyridinyl)methyl]sulfinyl-1H-benzimidazole] was tested, and the Healing rate was 90%, the “Number of healed animals” value was 9 and the “Ulcer index (x ± s), ulcer area S=π×(d1/2)×(d2/2)” value was 6.3 ± 6.1 mm2. The Ulcer inhibition rate was 65.1%.
